{"source": "patent US7285567B2", "about": "“Halogenated benzamide derivatives” (Romark Laboratories, L.C., priority 2005, dated 2007)", "key": {"[1]": {"system": "H3N2 influenza virus, type A", "test": "Multiple cycle CPE inhibition assay on MDCK cell monolayers", "format": "cell-based", "details": "0% EMEM + Hepes + Trypsin", "procedure": "EC50 (μg/mL) values for 2-(acetolyloxy)-3-methyl-N-(5-bromo-2-thiazolyl)benzamide (RM4803), 2-(acetolyloxy)-3-methyl-N-(5-chloro-2-thiazolyl)benzamide (RM4804), and 2-(acetolyloxy)-3-methoxy-N-(5-bromo-2-thiazolyl)benzamide (RM4806), on Human Rhinovirus Type 39 (HRV-39), and H3N2 influenza virus, type A, using a multiple cycle CPE inhibition assay on OH-I Hela and Madin Darby Canine Kidney (MDCK) cell monolayers, respectively, were measured by microscopic and spectrophotometric methods. Pirodavir and Oseltamivir were included as positive controls."}, "Hepatitis B Virus (HBV)": {"system": "Hepatitis B Virus (HBV)", "test": "HBV replication in 2.2.15 cell culture, 9-day assay", "format": "cell-based", "details": "for EC50 / EC90: Hepatitis B virus", "procedure": "(§1) Anti-Hepatitis B Virus (HBV) analyses and an assessment of cytotoxicity were performed in a 9-day assay in the chronically-producing HBV human hepatoblastoma cell line, 2.2.15, as previously described (Korba, B. E. & Gerin, J. L. Use of a standardized cell culture assay to assess activities of nucleosides analogues against hepatitis B virus replication. Antivir. Res. 19, 55-70 (1992)).\n(§2) Values presented (±standard deviations [S.D.]) were calculated by linear regression analysis using data combined from all treated cultures. S.D. were calculated using the standard error of regression generated from linear regression analyses (QuattroPro™). EC50, EC90=drug concentration at which a 2-fold, or a 10-fold depression of HBV DNA (relative to the average levels in untreated cultures), respectively, was observed, CC50=drug concentration at which a 2-fold depression of neutral red dye uptake (relative to the average levels in untreated cultures) was observed, The EC90 values were used for the calculation of the Selectivity Indexes [S.I.] since at least a 3-fold depression of HBV levels is typically required to achieve statistical significance in this assay system. HBV R.I.=intracellular HBV DNA replication intermediate."}, "[2]": {"test": "Cytotoxicity in 2.2.15 cells (neutral red dye uptake)", "format": "cell-based", "details": "human, 2-fold depression of neutral red dye uptake", "procedure": "as §1, §2"}, "[3]": {"system": "anaerobic bacteria (all 142 isolates)", "test": "CLSI agar dilution MIC, all anaerobic clinical isolates", "format": "cell-based", "details": "for MIC50 / MIC90: All (142 isolates), agar dilution, 48 h"}, "Prevotella/Porphyromonas": {"system": "Prevotella/Porphyromonas", "test": "CLSI agar dilution MIC, anaerobic clinical isolates", "format": "cell-based", "details": "Prev/Porphy (26 isolates), 48 h", "procedure": "(§3) Methods. Recent clinical anaerobic isolates (2000 to date) comprised 40 B. fragilis group, 26 Prevotella/Porphyromonas, 28 fusobacteria, 16 anaerobic Gram positive cocci, 14 anaerobic Gram-positive non-sporeforming rods and 18 clostridia. CLSI agar dilution MIC methodology with enriched Brucella blood agar and inocula of 1×10^5 cfu/spot was used. Plates were incubated in an anaerobic glove box at 35° C. for 48 h. Results."}, "B. fragilis group": {"system": "B. fragilis group", "test": "CLSI agar dilution MIC, anaerobic clinical isolates", "format": "cell-based", "details": "Bacteroides fragilis, B. fragilis gp (40 isolates), 48 h, 35° C.", "procedure": "as §3"}, "fusobacteria": {"system": "fusobacteria", "test": "CLSI agar dilution MIC, anaerobic clinical isolates", "format": "cell-based", "details": "Fusobacteria (28 isolates), 48 h", "procedure": "as §3"}, "[4]": {"system": "anaerobic Gram-positive non-sporeforming rods", "test": "CLSI agar dilution MIC, anaerobic clinical isolates", "format": "cell-based", "details": "Gram + rods (14 isolates), 48 h"}, "[5]": {"system": "anaerobic Gram positive cocci", "test": "CLSI agar dilution MIC, anaerobic clinical isolates", "format": "cell-based", "details": "Gram + cocci (16 isolates), 48 h"}, "clostridia": {"system": "clostridia", "test": "organism not typed", "format": "cell-based", "details": "48 h"}, "Neospora spp.": {"system": "Neospora spp.", "test": "Efficacy against intracellular protozoa"}, "Cryptosporidium spp.": {"system": "Cryptosporidium spp.", "test": "Efficacy against intracellular protozoa"}, "[6]": {"system": "Paramyxovirus: Sendai virus", "test": "microbe, parasite or virus in culture", "format": "cell-based", "details": "Respirovirus muris; Sendai virus in cell culture (Table 2)"}, "Sarcocystis neurona": {"system": "Sarcocystis neurona", "test": "Efficacy against intracellular protozoa"}}, "note": "Like-named read-outs stand apart in the source and are kept apart here.", "data": [{"smiles": "CCOC(=O)C1=C[C@@H](OC(CC)CC)[C@H](NC(C)=O)[C@@H](N)C1", "note": "[Oseltamivir, reference compound]", "values": [{"measurement": "EC50", "setting": "[1]; microscopic reading, read-out: EC50, Microscopic", "value": "0.13 to 0.17", "unit": "µg/mL"}, {"measurement": "EC50", "setting": "[1]; spectrophotometric reading, read-out: EC50, Spectrophotometer", "value": "0.08 to 0.36", "unit": "µg/mL"}]}, {"smiles": "Nc1ccn([C@@H]2CS[C@H](CO)O2)c(=O)n1", "note": "[Lamivudine, reference compound]", "values": [{"measurement": "EC50", "setting": "Hepatitis B Virus (HBV); read-out: Extracellular Virion DNA EC50", "value": "0.058 ± 0.006", "unit": "µM"}, {"measurement": "EC90", "setting": "Hepatitis B Virus (HBV); read-out: Extracellular Virion DNA EC90", "value": "0.164 ± 0.015", "unit": "µM"}, {"measurement": "EC50", "setting": "Hepatitis B Virus (HBV); read-out: Intracellular HBV R.I. EC50", "value": "0.172 ± 0.02", "unit": "µM"}, {"measurement": "EC90", "setting": "Hepatitis B Virus (HBV); read-out: Intracellular HBV R.I. EC90", "value": "0.66 ± 0.068", "unit": "µM"}, {"measurement": "Selectivity Index R.I.", "setting": "Hepatitis B Virus (HBV); calculated with EC90 values (CC50/EC90), HBV R.I.", "value": 3377}, {"measurement": "Selectivity Index Virion", "setting": "Hepatitis B Virus (HBV); calculated with EC90 values (CC50/EC90), virion DNA", "value": 12959}, {"measurement": "CC50 at 9 day", "setting": "[2]", "value": "2230 ± 76", "unit": "µM"}]}, {"smiles": "CCC[C@@H]1C[C@@H](C(=O)N[C@@H]([C@H]2O[C@H](SC)[C@H](O)[C@@H](O)[C@H]2O)[C@H](C)Cl)N(C)C1", "note": "[Clindamycin]", "values": [{"measurement": "MIC50", "setting": "[3]", "value": 0.125, "unit": "µg/mL"}, {"measurement": "MIC90", "setting": "[3]", "value": 8, "unit": "µg/mL"}, {"measurement": "MIC50", "setting": "Prevotella/Porphyromonas", "value": "≤ 0.015", "unit": "µg/mL"}, {"measurement": "MIC90", "setting": "Prevotella/Porphyromonas", "value": "≤ 0.015", "unit": "µg/mL"}, {"measurement": "MIC50", "setting": "B. fragilis group", "value": 2, "unit": "µg/mL"}, {"measurement": "MIC90", "setting": "B. fragilis group", "value": "> 32", "unit": "µg/mL"}, {"measurement": "MIC50", "setting": "fusobacteria", "value": 0.06, "unit": "µg/mL"}, {"measurement": "MIC90", "setting": "fusobacteria", "value": 0.125, "unit": "µg/mL"}, {"measurement": "MIC50", "setting": "[4]", "value": 0.125, "unit": "µg/mL"}, {"measurement": "MIC90", "setting": "[4]", "value": 4, "unit": "µg/mL"}, {"measurement": "MIC50", "setting": "[5]", "value": 0.125, "unit": "µg/mL"}, {"measurement": "MIC90", "setting": "[5]", "value": 0.5, "unit": "µg/mL"}, {"measurement": "MIC50", "setting": "clostridia", "value": 1, "unit": "µg/mL"}, {"measurement": "MIC90", "setting": "clostridia", "value": "> 32", "unit": "µg/mL"}]}, {"smiles": "CC(=O)Oc1cc(C)ccc1C(=O)Nc1ncc(Br)s1", "note": "[RM-4822]", "values": [{"measurement": "efficacy against intracellular protozoa", "setting": "Neospora spp.", "value": "effective"}, {"measurement": "efficacy against intracellular protozoa", "setting": "Cryptosporidium spp.", "value": "effective"}, {"measurement": "EC50", "setting": "[6]", "value": 0.36, "unit": "µM"}, {"measurement": "efficacy against intracellular protozoa", "setting": "Sarcocystis neurona", "value": "effective"}]}, {"smiles": "CC(=O)Oc1ccc(C)cc1C(=O)Nc1ncc(Br)s1", "note": "[RM-4821]", "values": [{"measurement": "efficacy against intracellular protozoa", "setting": "Neospora spp.", "value": "effective"}, {"measurement": "efficacy against intracellular protozoa", "setting": "Cryptosporidium spp.", "value": "effective"}, {"measurement": "EC50", "setting": "[6]", "value": 0.36, "unit": "µM"}, {"measurement": "efficacy against intracellular protozoa", "setting": "Sarcocystis neurona", "value": "effective"}]}, {"smiles": "CC(=O)Oc1ccccc1C(=O)Nc1ncc(Br)s1", "note": "[RM-4820, 2-(acetolyloxy)-N-(5-bromo-2-thiazolyl)benzamide]", "values": [{"measurement": "efficacy against intracellular protozoa", "setting": "Neospora spp.", "value": "effective"}, {"measurement": "efficacy against intracellular protozoa", "setting": "Cryptosporidium spp.", "value": "effective"}, {"measurement": "EC50", "setting": "[6]", "value": 0.34, "unit": "µM"}, {"measurement": "efficacy against intracellular protozoa", "setting": "Sarcocystis neurona", "value": "effective"}]}, {"smiles": "CC(=O)Oc1ccccc1C(=O)Nc1ncc([N+](=O)[O-])s1", "note": "[Nitazoxanide, 2-(acetolyloxy)-N-(5-nitro-2-thiazolyl) benzamide]", "values": [{"measurement": "MIC50", "setting": "[3]", "value": 2, "unit": "µg/mL"}, {"measurement": "MIC90", "setting": "[3]", "value": 4, "unit": "µg/mL"}, {"measurement": "Activity against anaerobic bacteria groups (summary in words)", "setting": "[3]; summary of MIC results", "value": "potent against all anaerobic bacteria groups except for Gram-positive anaerobic rods"}, {"measurement": "MIC50", "setting": "Prevotella/Porphyromonas", "value": 4, "unit": "µg/mL"}, {"measurement": "MIC90", "setting": "Prevotella/Porphyromonas", "value": 8, "unit": "µg/mL"}, {"measurement": "MIC50", "setting": "B. fragilis group", "value": 2, "unit": "µg/mL"}, {"measurement": "MIC90", "setting": "B. fragilis group", "value": 4, "unit": "µg/mL"}, {"measurement": "MIC50", "setting": "fusobacteria", "value": 1, "unit": "µg/mL"}, {"measurement": "MIC50", "setting": "[4]", "value": 16, "unit": "µg/mL"}, {"measurement": "MIC90", "setting": "[4]", "value": "> 32", "unit": "µg/mL"}, {"measurement": "MIC50", "setting": "[5]", "value": 0.5, "unit": "µg/mL"}, {"measurement": "MIC90", "setting": "[5]", "value": 2, "unit": "µg/mL"}, {"measurement": "MIC50", "setting": "clostridia; Clostridia (18 isolates), agar dilution, read-out: MIC50", "value": 0.5, "unit": "µg/mL"}]}]}
